Source: BindingDB's records for patent US20250313563 (The Broad Institute, 2025)
Several values for one entry are separate records, joined by “and”; a condition that tells them apart may be missing. Equal entries are not always repeated.

Tests used:
[1] = molecular target: Glycogen synthase kinase-3 alpha (Homo sapiens, UniProt P49840); assay: TR-FRET Assay
Method in brief: (§1)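 TR-FRET readout: streptavidin-d2 (40 nM in added detection mix) plus Tb-anti-pSer641 Ab (2 nM in mix). Steps were 30 min compound preincubation, kinase reaction, then EDTA stop.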

[2] = molecular target: Glycogen synthase kinase-3 beta (Homo sapiens, UniProt P49841); assay: TR-FRET Assay
Sequence of Glycogen synthase kinase-3 beta (P49841 whole entry): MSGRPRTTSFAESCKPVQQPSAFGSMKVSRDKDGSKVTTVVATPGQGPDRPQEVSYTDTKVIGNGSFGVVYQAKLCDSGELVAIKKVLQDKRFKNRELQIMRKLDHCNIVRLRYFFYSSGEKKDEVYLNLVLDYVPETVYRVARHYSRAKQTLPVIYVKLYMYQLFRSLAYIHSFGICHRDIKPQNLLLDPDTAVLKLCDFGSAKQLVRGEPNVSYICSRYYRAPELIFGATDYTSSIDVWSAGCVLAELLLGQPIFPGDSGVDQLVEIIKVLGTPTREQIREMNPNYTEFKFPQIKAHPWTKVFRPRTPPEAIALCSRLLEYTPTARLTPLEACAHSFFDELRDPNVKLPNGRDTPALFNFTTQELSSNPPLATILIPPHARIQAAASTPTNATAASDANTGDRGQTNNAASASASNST
Method in brief: as §1

Sequence of Glycogen synthase kinase-3 alpha (P49840 whole entry): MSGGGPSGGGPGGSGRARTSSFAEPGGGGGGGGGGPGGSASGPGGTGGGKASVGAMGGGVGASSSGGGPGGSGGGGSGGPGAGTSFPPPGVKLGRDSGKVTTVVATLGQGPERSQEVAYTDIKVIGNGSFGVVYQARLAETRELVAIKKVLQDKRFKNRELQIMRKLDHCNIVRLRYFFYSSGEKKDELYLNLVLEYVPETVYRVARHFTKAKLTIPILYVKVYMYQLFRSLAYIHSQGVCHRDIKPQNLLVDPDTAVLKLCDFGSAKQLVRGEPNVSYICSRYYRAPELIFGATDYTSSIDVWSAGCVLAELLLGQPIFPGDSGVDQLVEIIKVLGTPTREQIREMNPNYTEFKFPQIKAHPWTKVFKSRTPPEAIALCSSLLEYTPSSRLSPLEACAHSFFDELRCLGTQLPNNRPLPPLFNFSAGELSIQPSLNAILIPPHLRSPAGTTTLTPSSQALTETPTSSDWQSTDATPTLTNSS

| Compound | IC50 [1] | IC50 [2] |
| --- | --- | --- |
| CC[C@]1(c2cccc(-c3ccnc(C)c3)c2)C2=CN=NC2NC2=C1C(=O)N[C@]1(CCOC1)C2 (stereo partly specified) [US20250313563, Compound 948141] | 1000 to 5000 nM | > 5000 nM |
| COc1ccc(S(=O)(=O)N2CCCC3(CC2)C2=CN=NC2NC2=C3C(=O)CC(C)(C)C2)cc1 (stereo unspecified) [US20250313563, Compound 917141] | < 100 nM | 100 to 1000 nM |
| CCC1(c2cccc(-c3ccnc4c3CCC4)c2)C2=CN=NC2NC2=C1C(=O)CC(C)(C)C2 (stereo unspecified) [US20250313563, Compound 943534] | < 100 nM | < 100 nM |
| CCC1(c2cccc(-c3cnn(C)c3C)c2)C2=C(CC(C)(C)NC2=O)NC2N=NC(C(F)(F)F)=C21 (stereo unspecified) [US20250313563, Compound 947403] | < 100 nM | < 100 nM and 100 to 1000 nM |
| CC[C@]1(c2cccc(-c3c(C)nn(C)c3C)c2)C2=CN=NC2NC2=C1C(=O)CC(C)(C)C2 (stereo partly specified) [US20250313563, Compound 911990] | < 100 nM | < 100 nM and 100 to 1000 nM |
| CC1(C)CC(=O)C2=C(C1)NC1=C(CN=N1)C21CCc2c(F)cccc21 (stereo unspecified) [US20250313563, Compound 801357] | 100 to 1000 nM | > 1670 nM |
| CC1(C)CC(=O)C2=C(C1)NC1=C(CN=N1)C21COC2(CN(C(=O)C3CC(C)(C)C3)C2)C1 (stereo unspecified) [US20250313563, Compound 947282] | < 100 nM | 100 to 1000 nM |
| CC[C@]1(c2cccc([C@@H]3CCOC3)c2)C2=CN=NC2NC2=C1C(=O)CC(C)(C)C2 (stereo partly specified) [US20250313563, Compound 889557] | < 100 nM | < 100 nM |
| CCC1(c2cccc(N(C)c3cccnc3)c2)C2=CN=NC2NC2=C1C(=O)CC(C)(C)C2 (stereo unspecified) [US20250313563, Compound 865168] | < 100 nM | < 100 nM |
| CCC1(c2cccc(C3=CN=NC3)c2)C2=C(CC(C)(C)NC2=O)NC2N=NC(C(F)(F)F)=C21 (stereo unspecified) [US20250313563, Compound 947677] | < 100 nM | < 100 nM |
| CC[C@@]1(c2cccc(-c3ccnc(C)c3)c2)C2=CN=NC2NC2=C1C(=O)NC1(CCC1)C2 (stereo partly specified) [US20250313563, Compound 949520] | < 100 nM | 100 to 1000 nM |
| CC[C@]1(c2cccc(N(C)C(=O)c3ccn(C)n3)c2)C2=CN=NC2NC2=C1C(=O)CC(C)(C)C2 (stereo partly specified) [US20250313563, Compound 929455] | > 5000 nM | > 5000 nM |
| CC1(C)CC(=O)C2=C(C1)NC1=C(CN=N1)[C@]21CCO[C@@H](C(C)(C)C)C1 [US20250313563, Compound 912106] | 100 to 1000 nM | 1000 to 5000 nM |
| CC1(C)CC(=O)C2=C(NC3=C(CN=N3)[C@]23CC[C@H](C(F)(F)F)CC3)C1F (stereo partly specified) [US20250313563, Compound 917136] | < 100 nM | 100 to 1000 nM |
| CC[C@@]1(c2cccc(N(C)c3cccc(C(F)(F)F)n3)c2)C2=CN=NC2NC2=C1C(=O)CC(C)(C)C2 (stereo partly specified) [US20250313563, Compound 927338] | < 100 nM | 100 to 1000 nM |
| CC[C@]1(c2cc(-c3ccnc(C)c3)ccc2F)C2=CN=NC2NC2=C1C(=O)CC(C)(C)C2 (stereo partly specified) [US20250313563, Compound 909212] | < 100 nM | 100 to 1000 nM |
| CC[C@]1(c2ccccc2)C2=CN=NC2NC2=C1C(=O)CC1(CCC1)C2 (stereo partly specified) [US20250313563, Compound 819573] | < 100 nM | 100 to 1000 nM |
| O=C1CC2(CCCCC2)CC2=C1C1(CCOCC1)C1=C(N=NC1)N2 [US20250313563, Compound 893307] | < 100 nM | 100 to 1000 nM |
| CC[C@]1(c2ccccc2)C2=C(N=NC2)NC2=C1C(=O)[C@H]1CC[C@@H]2C1 [US20250313563, Compound 791268] | > 5000 nM | > 5000 nM |
| CC[C@]1(c2cccc(N3CCCC3)c2)C2=C(CC(C)(C)CC2=O)NC2N=NC(C(F)(F)F)=C21 (stereo partly specified) [US20250313563, Compound 819574] | < 100 nM | < 100 nM |
| CCC1(c2ccccc2)C2=C(CC(C)(C)CC2=O)NC2N=NC(Br)=C21 (stereo unspecified) [US20250313563, Compound 789459] | < 100 nM | < 100 nM |
| CC(C)S(=O)(=O)N1CCC2(CC1)C1=C(N=NC1)NC1=C2C(=O)CC(C)(C)[C@@H]1F [US20250313563, Compound 951714] | < 100 nM and 100 to 1000 nM | < 100 nM and 100 to 1000 nM |
| CC[C@@]1(c2cccc(C3CN(C(C)=O)C3)c2)C2=CN=NC2NC2=C1C(=O)CC(C)(C)C2 (stereo partly specified) [US20250313563, Compound 949132] | > 5000 nM | > 5000 nM |
| CC[C@]1(c2cccc(C(F)(F)F)c2)C2=CN=NC2NC2=C1C(=O)N(Cc1ccccc1)CC2 (stereo partly specified) [US20250313563, Compound 912005] | 100 to 1000 nM | 1000 to 5000 nM |
| CC[C@@]1(c2cccc(-c3ccncc3)c2)C2=CN=NC2NC2=C1C(=O)CC(C)(C)C2 (stereo partly specified) [US20250313563, Compound 801413] | 100 to 1000 nM | 1000 to 5000 nM |
| CC[C@@]1(c2cccc(C(F)(F)F)c2)C2=C(N=NC2)NC2=C1C(=O)N(Cc1ccccc1)C2 [US20250313563, Compound 929389] | 1000 to 5000 nM | > 5000 nM |
| CC[C@]1(c2cccc(-c3cnnn3C)c2)C2=CN=NC2NC2=C1C(=O)CC(C)(C)C2 (stereo partly specified) [US20250313563, Compound 947824] | 100 to 1000 nM | 1000 to 5000 nM |

| Compound | IC50 [1] | IC50 [2] |
| --- | --- | --- |
| CC1(C)CC(=O)C2=C(C1)NC1=C(CN=N1)C21COC2(CN(C(=O)C(C)(C)F)C2)C1 (stereo unspecified) [US20250313563, Compound 947276] | < 100 nM | < 100 nM |
| O=C1CC(c2ccccc2)CC2=C1C1(CCOCC1)C1=C(N=NC1)N2 (stereo unspecified) [US20250313563, Compound 893309] | 100 to 1000 nM | 1000 to 5000 nM |
| CCC1(c2cccc(-c3ccncc3F)c2)C2=CN=NC2NC2=C1C(=O)CC(C)(C)C2 (stereo unspecified) [US20250313563, Compound 883986] | < 100 nM | < 100 nM |
| CCC1(c2cccc(N3CCCC3)c2)C2=C(CC(C)(C)NC2=O)NC2N=NC(C(F)(F)F)=C21 (stereo unspecified) [US20250313563, Compound 947860] | < 100 nM | < 100 nM and 100 to 1000 nM |
| CCC1(c2cccc(N(C)C(=O)C3CCOCC3)c2)C2=CN=NC2NC2=C1C(=O)CC(C)(C)C2 (stereo unspecified) [US20250313563, Compound 912070] | < 100 nM | 100 to 1000 nM |
| CC[C@@]1(c2cccc(C(F)(F)F)c2)C2=CN=NC2NC2=C1C(=O)N(c1ccccc1C)CC2 (stereo partly specified) [US20250313563, Compound 949129] | > 5000 nM | > 5000 nM |
| CCC1(c2cccc(-c3cnnn3C(C)C)c2)C2=CN=NC2NC2=C1C(=O)CC(C)(C)C2 (stereo unspecified) [US20250313563, Compound 947397] | < 100 nM | < 100 nM |
| CC[C@@]1(c2cccc(C3=C(C)SN(C)C3)c2)C2=CN=NC2NC2=C1C(=O)NC1(CCC1)C2 (stereo partly specified) [US20250313563, Compound 950056] | 100 to 1000 nM | > 5000 nM |
| CC[C@@]1(c2cccc(-c3ccncc3C)c2)C2=CN=NC2NC2=C1C(=O)N[C@]1(CCCOC1)C2 (stereo partly specified) [US20250313563, Compound 947910] | < 100 nM | < 100 nM |
| CC[C@@]1(c2cccc(C(F)(F)F)c2)C2=CN=NC2NC2=C1C(=O)N(c1cnsc1)CC2 (stereo partly specified) [US20250313563, Compound 951742] | 100 to 1000 nM | 1000 to 5000 nM |
| CCC1(c2cccc(Cc3ncccn3)c2)C2=CN=NC2NC2=C1C(=O)NC(C)(C)C2 (stereo unspecified) [US20250313563, Compound 950151] | < 100 nM | 1000 to 5000 nM |
| CC1(C)CC(=O)C2=C(C1)NC1=C(CN=N1)C21CCN(S(=O)(=O)c2cnc3n2CCCC3)CC1 [US20250313563, Compound 947480] | < 100 nM | < 100 nM |
| CC[C@]1(c2ccccc2)C2=CN=NC2NC2=C1C(=O)[C@H](F)C(C)(C)C2 (stereo partly specified) [US20250313563, Compound 826768] | < 100 nM | 100 to 1000 nM |
| CC[C@@]1(c2cccc(-c3ccnc(N(C)C)c3)c2)C2=C(CC(C)(C)CC2=O)NC2N=NC(C)=C21 (stereo partly specified) [US20250313563, Compound 913021] | < 100 nM | < 100 nM |
| CC1(C)CC(=O)C2=C(C1)NC1=C(CN=N1)C21CCOCC1 [US20250313563, Compound 826648] | 100 to 1000 nM | 100 to 1000 nM |
| CC1(C)CC(=O)C2=C(C1)NC1N=NC(CCC(F)(F)F)=C1[C@@]21CCc2c(F)cccc21 (stereo partly specified) [US20250313563, Compound 874323] | 1000 to 5000 nM | 1000 to 5000 nM |
| Cc1cc(-c2cccc3c2CCC[C@]32C3=CN=NC3NC3=C2C(=O)CC(C)(C)C3)ccn1 (stereo partly specified) [US20250313563, Compound 945550] | 100 to 1000 nM | > 5000 nM |
| CC1(C)CC(=O)C2=C(C1)NC1=C(CN=N1)[C@@]21COC2(CN(C(=O)c3ccccc3)C2)C1 [US20250313563, Compound 943955] | < 100 nM | < 100 nM |
| CC[C@]1(c2cccc(-c3ccnc(C)c3)c2)C2=C(CC(C)(C)NC2=O)NC2N=NC(C(F)F)=C21 (stereo partly specified) [US20250313563, Compound 950162] | 100 to 1000 nM | 100 to 1000 nM |
| CCC1(c2cccc(N(C)c3ccc(F)nc3)c2)C2=CN=NC2NC2=C1C(=O)CC(C)(C)C2 (stereo unspecified) [US20250313563, Compound 917152] | < 100 nM | 100 to 1000 nM |
| CC1(C)CC(=O)C2=C(C1)NC1=C(CN=N1)[C@]21CCOC(C)(C)C1 [US20250313563, Compound 924298] | 1000 to 5000 nM | 1000 to 5000 nM |
| CC1(C)CC(=O)C2=C(C1)NC1=C(CN=N1)C2(C)c1cc(Cl)ccc1Cl (stereo unspecified) [US20250313563, Compound 806605] | 1000 to 5000 nM | > 5000 nM |
| CCC1(c2cccc(N(C)c3ccnn3C)c2)C2=CN=NC2NC2=C1C(=O)CC(C)(C)C2 (stereo unspecified) [US20250313563, Compound 889604] | 100 to 1000 nM | 1000 to 5000 nM |
| CC[C@]1(c2cccc(C3CCC3)c2)C2=CN=NC2NC2=C1C(=O)CC(C)(C)C2 (stereo partly specified) [US20250313563, Compound 949521] | < 100 nM and 100 to 1000 nM | < 100 nM and 1000 to 5000 nM |
| CC1(C)CC(=O)C2=C(C1)NC1=C(CN=N1)C21CCC1 [US20250313563, Compound 874509] | 100 to 1000 nM | 100 to 1000 nM |
| CN1CC2(C1)C1=C(N=NC1)NC1=C2C(=O)CC(C)(C)C1 [US20250313563, Compound 913264] | < 100 nM | < 100 nM |
